Patent US11666577B2 (National Institute of Biological Sciences, Beijing, priority 2018, dated 2023)

What follows are compounds tested on HT-29 cells (assay: Necroptosis assay (TNF-α/Smac mimetic/z-VAD, TSZ-induced) in HT-29 cells). Conditions: Homo sapiens; Series 1 (Table 1) compounds 1-146; HT-29 cells, TNF-α/Smac mimetic/z-VAD, 24 hrs, cell viability by ATP level; read-out: Series 1 compound necroptosis activity.
Format: cell-based, human
Experimental: Methods: HT-29 cells were cultured in McCoy's 5 A culture medium (Invitrogen). On day one, HT-29 cells were plated in 96-well assay plates at density of 2,500-3,500 cells per well. On day two, necrosis were induced by adding 20 ng/ml TNF-α (T), 100 nM Smac mimetic (S), and […] z-VAD (Z). At the same time, 10 mM compound from a chemical library of ˜200,000 compounds was delivered into each well. After 24 hrs treatment, cell viability was determined by measuring ATP level using the Cell Titer-Glo Luminescent Cell Viability Assay kit. A CellTiter-Glo Assay (Promega) was performed according to the manufacturer's instructions. Luminescence was recorded with a PerkinElmer EnSpire Multimode Plate Reader. Survived cells were normalized to those cells treated with DMSO. RIPA-56 was used as a positive control for screening necroptosis inhibitors. Data are represented as mean±standard deviation of duplicates.
In previous work, we performed a cell-based high-throughput screen to identify necroptosis inhibitors using a chemical library of ˜200,000 compounds and identified multiple compounds that protected human colorectal adenocarcinoma (HT-29) cells from TNF-α/Smac mimetic/Z-VAD-fmk (TSZ)-induced necroptosis.^[4]
The anti-necroptosis potency of compounds 7-12 and 14-18 was evaluated in the HT-29 cell line; the EC50 values are shown in Table B.
[a] Necroptosis was induced in HT-29 cells for 24 h; the EC50 values given here are the mean values of at least three independent analyses.

| SMILES | EC50 [µM] |
| --- | --- |
| Cn1c(=O)c2c(nc(S(=O)(=O)Cc3cc(Cl)ccc3Cl)n2C)n(C)c1=O [Compound 55, 8-(2,5-dichlorobenzylsulfonyl)-1,3,7-trimethyl-1H-purine-2,6(3H,7H)-dione] | 1 to 100 |
| Cn1c(=O)c2c(nc(S(=O)(=O)Cc3cc(Cl)cc(Cl)c3)n2C)n(C)c1=O [Compound 56, 8-(3,5-dichlorobenzylsulfonyl)-1,3,7-trimethyl-1H-purine-2,6(3H,7H)-dione] | 1 to 100 |
| COc1ccc(OC)c(CS(=O)(=O)c2nc3c(c(=O)n(C)c(=O)n3C)n2C)c1 [Compound 58, 8-(2,5-dimethoxybenzylsulfonyl)-1,3,7-trimethyl-1H-purine-2,6(3H,7H)-dione] | 1 to 10 |

Same assay, conditions: Homo sapiens; Series 2 (Table 2) compounds; HT-29 necroptosis assay; read-out: Series 2 compound necroptosis activity

| SMILES | EC50 [µM] |
| --- | --- |
| Cn1c(=O)c2c(nc(S(=O)(=O)CC3CC3)n2C)n(CC#Cc2ccnc(NCC3CC3)c2)c1=O [Compound 34] | 0.001 to 0.1 |
| CC(C)Nc1cc(C#CCn2c(=O)n(C)c(=O)c3c2nc(S(=O)(=O)CC2CC2)n3C)ccn1 [Compound 35] | 0.001 to 0.1 |
| Cn1c(=O)c2c(nc(S(C)(=O)=O)n2C)n(CC#Cc2cc(NC(=O)CN3CCOCC3)cc(NC(=O)C3CC3)c2)c1=O [Compound 36] | 0.001 to 0.1 |
| Cn1c(=O)c2c(nc(S(C)(=O)=O)n2C)n(CC#Cc2cc(NCC3CC3)cc(NCC3CC3)c2)c1=O [Compound 37] | 0.001 to 0.1 |
| COCC(=O)Nc1cc(C#CCn2c(=O)n(C)c(=O)c3c2nc(S(C)(=O)=O)n3C)cc(NC(=O)C2CC2)c1 [Compound 38] | 0.001 to 0.1 |
| Cn1c(=O)c2c(nc(S(C)(=O)=O)n2C)n(CC#Cc2cc(N)cc(NC(=O)C3CC3)c2)c1=O [Compound 40] | 0.001 to 0.1 |
| CN(C)CCOc1cc(C#CCn2c(=O)n(C)c(=O)c3c2nc(S(C)(=O)=O)n3C)cc(NC(=O)C2CC2)c1 [Compound 42] | 0.001 to 0.1 |
| Cn1c(=O)c2c(nc(S(C)(=O)=O)n2C)n(CC#Cc2cc(NC(=O)C3CC3)nc(C(F)(F)F)c2)c1=O [Compound 43] | 0.001 to 0.1 |
| Cn1c(=O)c2c(nc(S(C)(=O)=O)n2C)n(CC#Cc2cc(NC(=O)C3CC3)cc(C(F)(F)F)c2)c1=O [Compound 44] | 0.001 to 0.1 |
| Cn1c(=O)c2c(nc(S(=O)(=O)CC3CC3)n2C)n(CC#Cc2cc(NC(=O)C3CC3)nc(C(F)(F)F)c2)c1=O [Compound 45] | 0.001 to 0.1 |
| Cn1c(=O)c2c(nc(S(=O)(=O)CC3CC3)n2C)n(CC#Cc2cc(NC(=O)C3CC3)cc(C(F)(F)F)c2)c1=O [Compound 46] | 0.1 to 10 |
| Cn1c(=O)c2c(nc([S+](C)[O-])n2C)n(CC#Cc2cc(NC(=O)C3CC3)nc(C(F)(F)F)c2)c1=O (stereo not shown) [Compound 48] | 0.1 to 10 |
| Cn1c(=O)c2c(nc([S+](C)[O-])n2C)n(CC#Cc2cc(NC(=O)C3CC3)cc(C(F)(F)F)c2)c1=O (stereo not shown) [Compound 49] | > 10 |
| CCS(=O)(=O)c1nc2c(c(=O)n(C)c(=O)n2CC#Cc2cc(NC(=O)C3CC3)cc(NC(=O)C3CC3)c2)n1C [Compound 50] | 0.001 to 0.1 |
| COCCOc1cc(C#CCn2c(=O)n(C)c(=O)c3c2nc([S+](C)[O-])n3C)cc(NC(=O)C2CC2)c1 (stereo not shown) [Compound 54] | 0.001 to 0.1 |
| Cn1c(=O)c2c(nc(S(=O)(=O)NCc3ccccc3)n2C)n(C)c1=O [Compound 55] | 10 to 100 |
| CCCNS(=O)(=O)c1nc2c(c(=O)n(C)c(=O)n2C)n1C [Compound 58] | 10 to 100 |

Same assay, conditions: Series 1 (Table 1) compounds 1-146; HT-29 cells, TNF-α/Smac mimetic/z-VAD, 24 hrs, cell viability by ATP level; read-out: Series 1 compound necroptosis activity

| SMILES | EC50 [µM] |
| --- | --- |
| COc1ccccc1CS(=O)(=O)c1nc2c(c(=O)n(C)c(=O)n2C)n1C [Compound 35, 8-(2-methoxybenzylsulfonyl)-1,3,7-trimethyl-1H-purine-2,6(3H,7H)-dione] | 1 to 1000 |
| COc1cccc(CS(=O)(=O)c2nc3c(c(=O)n(C)c(=O)n3C)n2C)c1 [Compound 36, 8-(3-methoxybenzylsulfonyl)-1,3,7-trimethyl-1H-purine-2,6(3H,7H)-dione] | 1 to 1000 |
| COc1ccc(CS(=O)(=O)c2nc3c(c(=O)n(C)c(=O)n3C)n2C)cc1 [Compound 37, 8-(4-methoxybenzylsulfonyl)-1,3,7-trimethyl-1H-purine-2,6(3H,7H)-dione] | 1 to 1000 |
| Cn1c(=O)c2c(nc(S(=O)(=O)Cc3ccccc3[N+](=O)[O-])n2C)n(C)c1=O [Compound 38, 1,3,7-trimethyl-8-(2-nitrobenzylsulfonyl)-1H-purine-2,6(3H,7H)-dione] | 1 to 1000 |
| Cn1c(=O)c2c(nc(S(=O)(=O)Cc3cccc(C4(C(F)(F)F)N=N4)c3)n2C)n(C)c1=O [Compound 40, 1,3,7-trimethyl-8-(3-(3-(trifluoromethyl)-3H-diazirin-3-yl)benzylsulfonyl)-1H-purine-2,6(3H,7H)-dione] | 1 to 1000 |
| Cn1c(=O)c2c(nc(S(=O)(=O)Cc3ccc(C4(C(F)(F)F)N=N4)cc3)n2C)n(C)c1=O [Compound 41, 1,3,7-trimethyl-8-(4-(3-(trifluoromethyl)-3H-diazirin-3-yl)benzylsulfonyl)-1H-purine-2,6(3H,7H)-dione] | 1 to 1000 |
| Cn1c(=O)c2c(nc(S(=O)(=O)Cc3ccccc3C#N)n2C)n(C)c1=O [Compound 42, 2-((1,3,7-trimethyl-2,6-dioxo-2,3,6,7-tetrahydro-1H-purin-8-ylsulfonyl)methyl)benzonitrile] | 1 to 1000 |
| Cn1c(=O)c2c(nc(S(=O)(=O)Cc3cccc(C#N)c3)n2C)n(C)c1=O [Compound 43, 3-((1,3,7-trimethyl-2,6-dioxo-2,3,6,7-tetrahydro-1H-purin-8-ylsulfonyl)methyl)benzonitrile] | 1 to 1000 |
| Cn1c(=O)c2c(nc(S(=O)(=O)Cc3ccc(C#N)cc3)n2C)n(C)c1=O [Compound 44, 4-((1,3,7-trimethyl-2,6-dioxo-2,3,6,7-tetrahydro-1H-purin-8-ylsulfonyl)methyl)benzonitrile] | 1 to 1000 |
| Cn1c(=O)c2c(nc(S(=O)(=O)Cc3ccccc3C(N)=O)n2C)n(C)c1=O [Compound 45, 2-((1,3,7-trimethyl-2,6-dioxo-2,3,6,7-tetrahydro-1H-purin-8-ylsulfonyl)methyl)benzamide] | 1 to 1000 |
| Cn1c(=O)c2c(nc(S(=O)(=O)Cc3cccc(C(N)=O)c3)n2C)n(C)c1=O [Compound 46, 3-((1,3,7-trimethyl-2,6-dioxo-2,3,6,7-tetrahydro-1H-purin-8-ylsulfonyl)methyl)benzamide] | 1 to 1000 |
| Cn1c(=O)c2c(nc(S(=O)(=O)Cc3ccc(C(N)=O)cc3)n2C)n(C)c1=O [Compound 47, 4-((1,3,7-trimethyl-2,6-dioxo-2,3,6,7-tetrahydro-1H-purin-8-ylsulfonyl)methyl)benzamide] | 1 to 1000 |
| Cn1c(=O)c2c(nc(S(=O)(=O)Cc3ccccn3)n2C)n(C)c1=O [Compound 48, 1,3,7-trimethyl-8-(pyridin-2-ylmethylsulfonyl)-1H-purine-2,6(3H,7H)-dione] | 1 to 1000 |
| Cn1c(=O)c2c(nc(S(=O)(=O)Cc3cccc[n+]3[O-])n2C)n(C)c1=O [Compound 49, 2-((1,3,7-trimethyl-2,6-dioxo-2,3,6,7-tetrahydro-1H-purin-8-ylsulfonyl)methyl)pyridine 1-oxide] | 1 to 1000 |
| Cn1c(=O)c2c(nc(S(=O)(=O)Cc3cccnc3)n2C)n(C)c1=O [Compound 50, 1,3,7-trimethyl-8-(pyridin-3-ylmethylsulfonyl)-1H-purine-2,6(3H,7H)-dione] | 1 to 1000 |
| Cn1c(=O)c2c(nc(S(=O)(=O)Cc3ccc[n+]([O-])c3)n2C)n(C)c1=O [Compound 51, 3-((1,3,7-trimethyl-2,6-dioxo-2,3,6,7-tetrahydro-1H-purin-8-ylsulfonyl)methyl)pyridine 1-oxide] | 1 to 1000 |
| Cn1c(=O)c2c(nc(S(=O)(=O)Cc3cc[n+]([O-])cc3)n2C)n(C)c1=O [Compound 53, 4-((1,3,7-trimethyl-2,6-dioxo-2,3,6,7-tetrahydro-1H-purin-8-ylsulfonyl)methyl)pyridine 1-oxide] | 1 to 1000 |
| Cn1c(=O)c2c(nc(S(=O)(=O)Cc3cccc(Cl)c3Cl)n2C)n(C)c1=O [Compound 54, 8-(2,3-dichlorobenzylsulfonyl)-1,3,7-trimethyl-1H-purine-2,6(3H,7H)-dione] | 1 to 1000 |
| Cn1c(=O)c2c(nc(S(=O)(=O)Cc3c(Cl)cccc3Cl)n2C)n(C)c1=O [Compound 57, 8-(2,6-dichlorobenzylsulfonyl)-1,3,7-trimethyl-1H-purine-2,6(3H,7H)-dione] | 1 to 1000 |
| COc1cccc(CS(=O)(=O)c2nc3c(c(=O)n(C)c(=O)n3C)n2C)c1OC [Compound 61, 8-(2,3-dimethoxybenzylsulfonyl)-1,3,7-trimethyl-1H-purine-2,6(3H,7H)-dione] | 1 to 1000 |
| COc1cccc(OC)c1CS(=O)(=O)c1nc2c(c(=O)n(C)c(=O)n2C)n1C [Compound 62, 8-(2,6-dimethoxybenzylsulfonyl)-1,3,7-trimethyl-1H-purine-2,6(3H,7H)-dione] | 1 to 1000 |
| COc1c(Cl)cccc1CS(=O)(=O)c1nc2c(c(=O)n(C)c(=O)n2C)n1C [Compound 63, 8-(3-chloro-2-methoxybenzylsulfonyl)-1,3,7-trimethyl-1H-purine-2,6(3H,7H)-dione] | 1 to 1000 |

Same assay, conditions: read-out: Series 1 compound necroptosis activity

| SMILES | EC50 [µM] |
| --- | --- |
| COc1cc(CS(=O)(=O)c2nc3c(c(=O)n(C)c(=O)n3C)n2C)cc(OC)c1 [Compound 59, 8-(3,5-dimethoxybenzylsulfonyl)-1,3,7-trimethyl-1H-purine-2,6(3H,7H)-dione] | 1 to 1000 |
